Assays:
[1] = test system: OSR1-GFP & SIX2-tdTomato reporter human iPS cell line; assay: SIX2-positive cell induction method 2, SIX2-tdTomato-positive cell rate by flow cytometer; type: cell-based; conditions: stage 3 medium with 5 ng/ml TGFβ1 and 0.5 μM Dorsomorphin, 12 to 22 days
Experimental: The OSR1-GFP & SIX2-tdTomato reporter human iPS cell line obtained by the method in Example 1 was cultured in the manner described in stage 1 of induction method 1 to become confluent on 10-cm dishes using SNL cells as feeder cells. A CTK solution was added to dissociate the cells. After removal of the feeder cells, the dissociated cells were suspended in a DMEM/F12 medium containing 1 μM TTNPB (Sigma, T3757), 1 μM CHIR99021, 1% GlutaMAX (100×), 2% FBS, and 0.5% PenStrep. Then, the cell suspensions were transferred to a low cell binding plate (LOW CELL BIND 6 WELL DISH) such that each well contained one-third to one-sixth of the cell suspension obtained from the 10-cm dish, followed by suspension culture at 37° C. in a 5% CO2 atmosphere for 2 days.
(§1) The cell mass obtained at stage 1 was transferred to dishes coated with Matrigel or dishes coated with Synthemax (prepared in the manner described in stage 2 of induction method 1). The medium was exchanged with a DMEM/F12 medium containing 1 μM TTNPB, 0.1% 2-mercaptoethanol (1000×), 1% GlutaMAX (100×), 10% KnockOut SR, 0.1 mM MEM NEAA, and 0.5% PenStrep, followed by adhesion culture at 37° C. in a 5% CO2 atmosphere for 3 to 9 days. In this case, the medium was exchanged every 3 days with a medium having the same conditions.
The medium was removed from the cells obtained at stage 2. […]

[2] = test system: OSR1-positive cells sorted from OSR1-GFP & SIX2-tdTomato reporter human iPS cell line; assay: SIX2-positive cell induction method 3, SIX2-tdTomato-positive cell rate by flow cytometer; type: cell-based; conditions: stage 3 medium with 5 ng/ml TGFβ1 and 0.5 μM Dorsomorphin
Experimental: The OSR1-GFP & SIX2-tdTomato reporter human iPS cell line obtained by the method in Example 1 was cultured in the manner described in stage 1 of induction method 1 to become confluent in 10-cm dishes using SNL cells as feeder cells. A CTK solution was added to dissociate the cells. After removal of the feeder cells, Accutase™ (Innovative Cell Technologies, AT-104) was added to disperse iPS cells to result in single cells. Then, the obtained cells were suspended in a DMEM/F12 medium containing 10 μM Y-27632 (Wako, 253-00513), 1 μM CHIR99021, 1 μM TTNPB, 1% GlutaMAX (100×), 2% FBS, and 0.5% PenStrep. The obtained cell suspensions (1×10^5 cells/well (for a 96-well dish)) were transferred to a dish coated with 0.1% gelatin (Gelatin from porcine skin, Type A (Sigma, G1890)), followed by adhesion culture at 37° C. in a 5% CO2 atmosphere for 2 days.
as §1, with “cells” for “cell mass”, “were washed” for “was transferred to dishes coated”, “PBS.” for “Matrigel or dishes coated with Synthemax (prepared in the manner described in stage 2 of induction method 1).”
Accutase™ was added to cells obtained at stage 2 to dissociate the cells. […]

Row | Compound | SIX2-tdTomato-positive cell rate [1] [%] | SIX2-tdTomato-positive cell rate [2] [%]
1 | c1cc(-c2cnn3cc(-c4ccc(OCCN5CCCCC5)cc4)cnc23)ccn1 [Dorsomorphin, 6-[4-(2-piperidin-1-yl-ethoxy)phenyl]-3-pyridin-4-yl-pyrazolo[1,5-a]pyrimidine] | 20.6±5.3 | 31.1±10.0
2 | TGFβ1: TGFβ signaling activator protein (Peprotech) | 20.6±5.3 | 31.1±10.0

Reference: US11225642B2, “Method for producing renal progenitor cells” (KYOTO UNIVERSITY, priority 2013, dated 2022)
